We go through 2 compounds from PMC1977485, “The renal effects of N10-propargyl-5,8-dideazafolic acid (CB3717) and a non-nephrotoxic analogue ICI D1694, in mice” (British Journal of Cancer, 1991).

Data set [1] relates to C57/DBA2 mice. As to the kind of experiment: GFR by 14C-inulin clearance, single timed plasma sample, in drug treated mice. The format is in vivo. From the text:
Br .Cncr(91) 4 3-88?McilnPesLd,19 The renal effects of N1l-propargyl-5,8-dideazafolic acid (CB3717) and a non-nephrotoxic analogue ICI D1694, in mice D.I. Jodrell', D.R. Newelll,*, S.E. Morgan', S. Clinton2, J.P.M. Bensted2, L.R. Hughes3 & A.H. Calvertl,* 'Clinical Pharmacology Team, Drug Development Section, and 2Histopathology Section, Institute of Cancer Research, 15 Cotswold Road, Sutton, Surrey SM2 SNG; and 3ICI Pharmaceuticals, Mereside, Alderley Park, Macclesfield, Cheshire SKIO 4TG, UK. Summary N-(5-[N-(3,4-dihydro-2-methyl-4-oxoquinazolin-6-ylmethyl)-N-methylamino]-2-thenoyl)-L-glutamic acid (ICI D1694) is an analogue of the thymidylate synthase inhibitor, N'?-propargyl-5,8-dideazafolic acid (CB3717). […] Previous studies have shown ICI D1694 to be non-toxic to the kidney following a single administration but its renal effects after chronic administration are unknown. […] The '4C-inulin clearance assay developed was used to show a linear relationship between CB3717 dosage and renal damage (r=-0.989) following a single bolus dose (50-200mgkg-'), in mice. CB3717-induced renal damage is persistent (>6 weeks) and renal scarring was noted. […] However, the clinical use of CB3717 was limited by its nephrotoxicity, which was observ- ed in Phase I studies of both weekly (Vest et al., 1988) and 3-weekly administration schedules (Calvert et al., 1986; Sessa et al., 1988). Renal toxicity manifested primarily as a reduc- tion in glomerular filtration rate (GFR). However, tubular damage was also identified by the measurement of the urin- ary enzymes, N-acetyl glucosaminidase (NAG) and leucine aminopeptidase (LAP). […] In addition, urinary NAG and LAP levels were elevated in 50% of patients studied, although this elevation was not dose related (Calvert et al., 1986). CB3717-induced nephrotoxicity was thought to be due to the compound's relative insolubility at acid pH. […] The plasma concentrations of urea and creatinine are com- monly measured to assess renal function during toxicological screening of new drugs. […]

Data set [2] has as its system C57/DBA2 mice. In words: Plasma urea concentration. The format is in vivo. The conditions noted are these: single dose 100 mg kg-1, at 9, 10, 11 and 14 weeks, small number of animals. From the text: Br .Cncr(91) 4 3-88?McilnPesLd,19 The renal effects of N1l-propargyl-5,8-dideazafolic acid (CB3717) and a non-nephrotoxic analogue ICI D1694, in mice D.I. Jodrell', D.R. Newelll,*, S.E. Morgan', S. Clinton2, J.P.M. Bensted2, L.R. Hughes3 & A.H. Calvertl,* 'Clinical Pharmacology Team, Drug Development Section, and 2Histopathology Section, Institute of Cancer Research, 15 Cotswold Road, Sutton, Surrey SM2 SNG; and 3ICI Pharmaceuticals, Mereside, Alderley Park, Macclesfield, Cheshire SKIO 4TG, UK. Summary N-(5-[N-(3,4-dihydro-2-methyl-4-oxoquinazolin-6-ylmethyl)-N-methylamino]-2-thenoyl)-L-glutamic acid (ICI D1694) is an analogue of the thymidylate synthase inhibitor, N'?-propargyl-5,8-dideazafolic acid (CB3717). […] Previous studies have shown ICI D1694 to be non-toxic to the kidney following a single administration but its renal effects after chronic administration are unknown. […] The '4C-inulin clearance assay developed was used to show a linear relationship between CB3717 dosage and renal damage (r=-0.989) following a single bolus dose (50-200mgkg-'), in mice. CB3717-induced renal damage is persistent (>6 weeks) and renal scarring was noted. […] The plasma concentrations of urea and creatinine are com- monly measured to assess renal function during toxicological screening of new drugs. […]

Data set [3] concerns C57/DBA2 mice. In words: Histological examination of the kidney (H&E). The format is in vivo. The source says: Br .Cncr(91) 4 3-88?McilnPesLd,19 The renal effects of N1l-propargyl-5,8-dideazafolic acid (CB3717) and a non-nephrotoxic analogue ICI D1694, in mice D.I. Jodrell', D.R. Newelll,*, S.E. Morgan', S. Clinton2, J.P.M. Bensted2, L.R. Hughes3 & A.H. Calvertl,* 'Clinical Pharmacology Team, Drug Development Section, and 2Histopathology Section, Institute of Cancer Research, 15 Cotswold Road, Sutton, Surrey SM2 SNG; and 3ICI Pharmaceuticals, Mereside, Alderley Park, Macclesfield, Cheshire SKIO 4TG, UK. Summary N-(5-[N-(3,4-dihydro-2-methyl-4-oxoquinazolin-6-ylmethyl)-N-methylamino]-2-thenoyl)-L-glutamic acid (ICI D1694) is an analogue of the thymidylate synthase inhibitor, N'?-propargyl-5,8-dideazafolic acid (CB3717). […] Previous studies have shown ICI D1694 to be non-toxic to the kidney following a single administration but its renal effects after chronic administration are unknown. […] The '4C-inulin clearance assay developed was used to show a linear relationship between CB3717 dosage and renal damage (r=-0.989) following a single bolus dose (50-200mgkg-'), in mice. CB3717-induced renal damage is persistent (>6 weeks) and renal scarring was noted. […] However, the clinical use of CB3717 was limited by its nephrotoxicity, which was observ- ed in Phase I studies of both weekly (Vest et al., 1988) and 3-weekly administration schedules (Calvert et al., 1986; Sessa et al., 1988). Renal toxicity manifested primarily as a reduc- tion in glomerular filtration rate (GFR). However, tubular damage was also identified by the measurement of the urin- ary enzymes, N-acetyl glucosaminidase (NAG) and leucine aminopeptidase (LAP). […] In addition, urinary NAG and LAP levels were elevated in 50% of patients studied, although this elevation was not dose related (Calvert et al., 1986). CB3717-induced nephrotoxicity was thought to be due to the compound's relative insolubility at acid pH. […] To circumvent toxicity related to drug precipitation in the kidney, a series of more soluble analogues of CB3717 have been synthesised. […] One such analogue, N-(5-[N-(3,4-dihydro-2- methyl- 4 -oxoquinazolin- 6 -ylmethyl)- N -methylamino]-2-the- noyl) L-glutamic acid (ICI D1694, Figure lii) has been selected for preclinical development (Jackman et al., 1991). The plasma concentrations of urea and creatinine are com- monly measured to assess renal function during toxicological screening of new drugs. However, these parameters are rela- tively insensitive, because, in mice, a rise in plasma urea and creatinine concentration only occurs following the loss of 70-75% of functional renal mass (Everett & Harrison, 1983). Specificity is also poor because an elevation in plasma urea may be caused by 'pre-renal' (increased protein catabolism, gastric or intestinal bleeding and dehydration) or 'post-renal' (obstruction to renal outflow) causes, as well as parenchymal renal damage (Everett & Harrison, 1983). […] In man, the measurement of GFR has become accepted as a routine method for the assessment of renal function. The classical technique using inulin, which is solely cleared from the plasma by glomerular filtration, involves its constant infusion with simultaneous urine collec- tion (Jones, 1985). However, in mice, a constant infusion of inulin and simultaneous urine collection would require anaes- thesia or rigid restraint and complete emptying of the bladder before and at completion of the test (Ragan, 1989). Therefore a b Correspondence: D.I. Jodrell, Clinical Pharmacology, Drug Develop- ment Section, E Block, Institute of Cancer Research, 15 Cotswold Road, Sutton, Surrey SM2 5NG, UK. *Present address: Cancer Research Unit, The Medical School, Uni- versity of Newcastle upon Tyne, Framlington Place, Newcastle upon Tyne NE2 4HH, UK. Received 5 June 1991; and in revised form 19 July 1991. […]

A further data set relates to patients. As to conditions: cited from earlier work.
Details of data set [4]: method as in Newell et al., 1986. The conditions noted are these: radiolabelled CB3717, mice, 23 days after administration; ref Newell et al., 1986; cited from earlier work.
The test system of another data set is mice. Also on record: method as in Jodrell et al., 1990. The conditions noted are these: single bolus doses of 500 mg kg-1; ref Jodrell et al., 1990; cited from earlier work.
For data set [5] the following is noted: compared with CB3717; cited from earlier work.
Setting [6] is: 100 mg kg-1 weekly for 6 weeks, 1 week after final dose.

Turning to `C#CCN(Cc1ccc2nc(N)[nH]c(=O)c2c1)c1ccc(C(=O)N[C@@H](CCC(=O)O)C(=O)O)cc1` [CB3717, N10-propargyl-5,8-dideazafolic acid], in the data set with C57/DBA2 mice [1] (200 mg kg-1 single ip bolus, 5 days after (Figure 4)), the “reduction in GFR” value is more than 70%. Moreover, the “persistence of renal damage” value in the data set on C57/DBA2 mice [1] (single dose 100 mg kg-1) is reported as more than 6 weeks. The GFR entry in the data set with C57/DBA2 mice [1] (single dose of 10 mg kg-1 (30 mg m-2), 5 days after) is reported as “normal”. Moreover, the “plasma biochemistry (urea and creatinine concentrations)” value in the data set on C57/DBA2 mice [2] is given as “normal”. Further, the kidney histology entry in the data set with C57/DBA2 mice [3] (setting [6]) was “Cortical scarring with tubular dilatation and amorphous casts”; with C57/DBA2 mice [3] (single dose 10 mg kg-1, 5 days after), “normal”; with C57/DBA2 mice [3] (single dose 50 mg kg-1, 5 days after) it was “focal tubular dilatation”; with C57/DBA2 mice [3] (single dose 100 mg kg-1, 14 weeks, small number of animals), “cortical scarring and the presence of amorphous casts”; in the data set on C57/DBA2 mice [3] (single dose 100 mg kg-1, 24 h after administration), “tubular dilatation”; with C57/DBA2 mice [3] (single dose 100 mg kg-1, day 3), “focal tubular dilatation”. Besides, the kidney histology entry is “glomerular atrophy” with C57/DBA2 mice [3] (single dose 100 mg kg-1, day 20); “Tubular dilatation persisted through days 5 and 7 with increased tubular mitotic activity” in the data set on C57/DBA2 mice [3] (single dose 100 mg kg-1, days 5 and 7); “deeply pitted scars” in the data set with C57/DBA2 mice [3] (single dose 100 mg kg-1, six weeks (42 days)). For the same compound, the “courses with reductions in GFR (creatinine clearance) of >20%” value with patients (6/17 courses at 400 mg m2 despite alkalinisation of the urine, ref Sessa et al., 1988) was 35%. Further, the “lowest dose causing renal damage (reduction in GFR)” value in the data set on patients (bolus injection at weekly intervals, in man, ref Vest et al., 1988) is on record as 10 mg m2. Further, the “patients with elevated urinary NAG and LAP levels” value in the data set with patients (patients studied, not dose related, ref Calvert et al., 1986) was 50%. Besides, the “patients with >20% reduction in GFR” value in the data set on patients (seven of 12 patients receiving more than 400 mg m2, ref Calvert et al., 1986) is reported as 58%. Further, the “radioactivity in the kidneys” value in data set [4] was “still detectable”.

On to `Cc1nc2ccc(CN(C)c3ccc(C(=O)N[C@@H](CCC(=O)O)C(=O)O)s3)cc2c(=O)[nH]1` [ICI D1694, N-(5-[N-(3,4-dihydro-2-methyl-4-oxoquinazolin-6-ylmethyl)-N-methylamino]-2-thenoyl)-L-glutamic acid], for which the kidney histology entry is reported as “no histological evidence of renal damage” in the data set with C57/DBA2 mice [3] (setting [6]) and “normal in 5/5 mice” with C57/DBA2 mice [3] (250 mg kg-1 weekly for 6 weeks, 1 week after final dose). Further, the acute renal toxicity entry in the data set with mice is given as “absence of acute renal toxicity”. The water solubility entry in data set [5] was “more water soluble”.
